# Tested on: c-Fos regulatory region
# Experiment: Activity-dependent expression of a reporter driven by c-Fos regulatory regions
# Conditions: comparison of three regulatory regions
# Excerpt: The activity-dependent expression of a reporter construct driven by a regulatory region containing 761 bp of 5′ mouse c-Fos non-coding sequence, mouse c-Fos exon 1 and mouse c-Fos intron 1, as depicted in FIG. 9 (SEQ ID NO:7) was compared to: (1) the activity-dependent expression of the same reporter driven by the c-Fos 5′-non-coding sequence depicted in FIG. 10 (SEQ ID NO:1) and (2) the activity-dependent expression of the same reporter driven by the entire c-Fos gene followed by an IRES as depicted in FIG. 11 (SEQ ID NO:29).
substance,measurement,value
"SEQ ID NO:7: reporter driven by regulatory region containing 761 bp of 5′ mouse c-Fos non-coding sequence, mouse c-Fos exon 1 and intron 1",activity-dependent expression of the reporter,"best for high, non-leaky expression"
